Earlier results, collected in patent US9062031B2, “Method of preparing polymorphic pure form A of bazedoxifene acetate” (SANDOZ AG, priority 2010, dated 2015).

What was measured:
[1] = solvent or solvent mixture, for example ethylacetate and ethanol
[2] = aqueous and organic solvent systems

In the case of `Cc1c(-c2ccc(O)cc2)n(Cc2ccc(OCCN3CCCCCC3)cc2)c2ccc(O)cc12` [Bazedoxifene x acetate form A, 1-[[4-[2-(Hexahydro-1H-azepin-1-Dethoxy]phenyl]methyl]-2-(4-hydroxyphenyl)-3-methyl-1H-indol-5-ol monoacetate], the “Conversion to form B upon contact with solvent” value [1] is given as “can easily convert to form B” and the “Solubility compared with form B” value [2] is given as “higher solubility than form B”.
